Article PMC6934184, “Selective DNA-PKcs inhibition extends the therapeutic index of localized radiotherapy and chemotherapy” (The Journal of Clinical Investigation, 2019)

Molecular target: T1, PRKCZ (PKC zeta) (Homo sapiens, UniProt Q05513)
T1 construct: purchased Thermo Fisher Scientific (Life Technologies) SelectScreen
Assay: SelectScreen Z'LYTE
Assay type: biochemical
Summary of the method: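 Percent values come from Thermo SelectScreen profiling of NU5455, combining activity and binding assays. CSF1R was run in Z'LYTE format at Km app ATP, and CAMK1 in Adapta format with ATP listed at 10.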

T1 sequence (Q05513 whole entry): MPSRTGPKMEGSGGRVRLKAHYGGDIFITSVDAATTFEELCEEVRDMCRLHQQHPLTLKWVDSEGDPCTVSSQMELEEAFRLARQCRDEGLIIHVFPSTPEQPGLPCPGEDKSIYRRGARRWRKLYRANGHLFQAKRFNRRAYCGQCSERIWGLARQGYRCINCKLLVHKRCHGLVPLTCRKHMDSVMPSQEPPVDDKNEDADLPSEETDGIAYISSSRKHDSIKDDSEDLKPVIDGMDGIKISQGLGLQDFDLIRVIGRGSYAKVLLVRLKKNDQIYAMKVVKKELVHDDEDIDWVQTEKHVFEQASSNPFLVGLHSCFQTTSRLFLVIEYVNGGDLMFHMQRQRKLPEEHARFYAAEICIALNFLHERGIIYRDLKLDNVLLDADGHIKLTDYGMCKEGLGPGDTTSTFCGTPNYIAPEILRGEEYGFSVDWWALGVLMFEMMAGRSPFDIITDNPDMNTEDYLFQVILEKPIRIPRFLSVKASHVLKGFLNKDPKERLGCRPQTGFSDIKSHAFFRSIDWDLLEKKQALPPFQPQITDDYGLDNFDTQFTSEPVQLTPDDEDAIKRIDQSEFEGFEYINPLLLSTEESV

**Q.** For `CN(C(=O)CN1CCOCC1)c1ccc2sc3c(-c4cccc5c(=O)cc(N6CC7CCC(C6)O7)oc45)cccc3c2c1` [NU5455], which inhibition at 1 µM is on record?
**A.** The inhibition at 1 µM was 4.7%.
